In ChEMBL document CHEMBL1134524, “Utilization of an intramolecular hydrogen bond to increase the CNS penetration of an NK(1) receptor antagonist” (J Med Chem, 2001):

Each compound was assayed on Meriones unguiculatus (assay: Minimal effective dose to antagonize the foot tapping response when administered subcutaneously (0.1-10 mg/kg) in gerbil). Conditions: sc, read-out: MED.

| SMILES | minimal effective dose [mg/kg] |
| --- | --- |
| C[C@H](NC(=O)[C@](Cc1c[nH]c2ccccc12)(CN(C)C)NC(=O)OCc1cc2ccccc2o1)c1ccccc1 | 1 |

What follows are compounds tested against Substance-P receptor (Homo sapiens, UniProt P25103) (assay: Inhibition of specific binding at tachykinin receptor 1). Conditions: not given.
Substance-P receptor, sequence (P25103 whole entry): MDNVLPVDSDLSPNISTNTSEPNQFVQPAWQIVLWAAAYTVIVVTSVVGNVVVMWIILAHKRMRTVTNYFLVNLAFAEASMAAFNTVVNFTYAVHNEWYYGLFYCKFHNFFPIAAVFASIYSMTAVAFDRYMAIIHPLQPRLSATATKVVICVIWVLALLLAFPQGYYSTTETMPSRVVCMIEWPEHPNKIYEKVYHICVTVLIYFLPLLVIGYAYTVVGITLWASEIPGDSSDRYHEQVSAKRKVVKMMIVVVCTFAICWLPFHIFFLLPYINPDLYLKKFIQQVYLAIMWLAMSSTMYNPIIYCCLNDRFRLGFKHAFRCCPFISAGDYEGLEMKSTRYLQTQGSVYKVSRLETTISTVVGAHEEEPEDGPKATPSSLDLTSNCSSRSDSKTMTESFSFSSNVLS

| SMILES | IC50 [nM] |
| --- | --- |
| COC[C@](Cc1c[nH]c2ccccc12)(NC(=O)OCc1cc2ccccc2o1)C(=O)N[C@@H](C)c1ccccc1 | 0.7 |
| C[C@H](NC(=O)[C@](Cc1c[nH]c2ccccc12)(CN(C)C)NC(=O)OCc1cc2ccccc2o1)c1ccccc1 | 0.46 |
| CC(C)C[C@](Cc1c[nH]c2ccccc12)(NC(=O)OCc1cc2ccccc2o1)C(=O)N[C@@H](C)c1ccccc1 | 3.79 |
| CCC[C@](Cc1c[nH]c2ccccc12)(NC(=O)OCc1cc2ccccc2o1)C(=O)N[C@@H](C)c1ccccc1 | 0.85 |
| C[C@H](NC(=O)[C@@H](Cc1c[nH]c2ccccc12)NC(=O)OCc1cc2ccccc2o1)c1ccccc1 | 0.73 |
| CC[C@](Cc1c[nH]c2ccccc12)(NC(=O)OCc1cc2ccccc2o1)C(=O)N[C@@H](C)c1ccccc1 | 0.96 |
